This passage reports Activity results from ChEMBL document CHEMBL1147373, “Patagonicol: a diterpenoid from the Chinese soft coral Alcyonium patagonicum” (J Nat Prod, 1993).

Activity calls are given as the source filed them. No cut-off for these calls is given here.

Experiment [1] has as its system P388. Nature of the experiment: Cytotoxicity against mouse P388 cells. Format: functional, cell-based.
In experiment [2] the test system is Candida albicans. Briefly: Antifungal activity against Candida albicans. The experiment is classed as functional, organism-based.

Take `C=C1CC[C@H](C(C)C)[C@@H]2[C@H]1[C@H]1C[C@](C)(O)[C@@H](OCC)CC[C@@](C)(O)[C@@H]2O1`: the result in experiment [1] and in experiment [2] was inactive.
